Data from ChEMBL document CHEMBL1201862, “PubChem BioAssay data set” (2004).
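Cultured in 96-well plates, cells were exposed to test compound for 48 hours across five concentrations. Abbreviation: GI50, concentration required for 50% inhibition of growth.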 The source made the active and inactive calls. No stated cut-off is given here; in the data, active = GI50 up to about 1.1 µM and inactive = higher.

Tests used:
Assay in all cases: NCI tumour cell line growth inhibition, 48 h
[1] = system: MDA-N
[2] = system: MDA-MB-435
[3] = system: COLO 205
[4] = system: M14
[5] = system: HOP-62
[6] = system: HT-29
[7] = system: NCI-H23
[8] = system: HOP-92
[9] = system: NCI-H460
[10] = system: UACC-62
[11] = system: OVCAR-3
[12] = system: UO-31
[13] = system: SNB-19
[14] = system: SK-MEL-5
[15] = system: IGROV-1
[16] = system: SF-268
[17] = system: EKVX
[18] = system: NCI-H522
[19] = system: TK-10
[20] = system: PC-3

Measured: GI50

O=S1(=O)NN=C(NCc2ccc(F)cc2)c2ccccc21
inactive: [1] > 100 µM | [2] > 100 µM | [3] > 76.4 µM | [4] > 50.9 µM | [5] 39.6 µM | [6] > 63.1 µM | [7] > 100 µM | [8] 24.7 µM | [9] > 31.6 µM | [10] 34.7 µM | [11] 67.5 µM | [12] > 100 µM | [13] 39.3 µM | [14] > 68.2 µM | [15] > 72.4 µM | [16] > 100 µM | [17] > 100 µM

CSc1nc(N)c(NC2OC(CO)C(O)C2O)c(=O)[nH]1 (configuration not stated)
inactive: [1] > 100 µM | [2] > 100 µM | [3] > 100 µM | [4] > 100 µM | [5] > 100 µM | [18] > 100 µM | [6] > 100 µM | [19] > 100 µM | [9] > 100 µM | [10] > 100 µM | [20] > 100 µM | [11] > 100 µM | [12] > 100 µM | [13] > 100 µM | [14] > 100 µM | [15] > 100 µM | [16] > 100 µM | [17] > 100 µM

Cc1ccc(C)c2c1n1c(=O)n(C)c(=O)n21
inactive: [1] > 100 µM | [2] > 100 µM | [3] > 100 µM | [4] > 100 µM | [18] > 100 µM | [6] > 100 µM | [19] > 100 µM | [7] > 100 µM | [8] > 100 µM | [9] > 100 µM | [10] > 100 µM | [20] > 100 µM | [11] > 100 µM | [12] > 100 µM | [13] > 100 µM | [14] > 100 µM | [15] > 100 µM | [16] > 100 µM | [17] > 100 µM

O=C1CSC(c2c[nH]c3ccccc23)N1c1ccc(Cl)cc1 (configuration not stated)
inactive: [1] > 100 µM | [2] > 100 µM | [3] > 100 µM | [4] > 100 µM | [5] > 100 µM | [6] > 100 µM | [19] > 100 µM | [7] > 100 µM | [8] 2.85 µM | [9] > 100 µM | [10] > 100 µM | [11] > 100 µM | [12] > 100 µM | [13] > 100 µM | [14] > 100 µM | [15] > 100 µM | [16] > 100 µM | [17] 59.7 µM

COc1ccc2c3c([nH]c2c1)CCN(CCCC(=O)c1ccc(F)cc1)C3
inactive: [1] 20 µM | [2] 17.1 µM | [3] 12.8 µM | [4] 15.5 µM | [5] 12.2 µM | [18] 23.3 µM | [6] 4.91 µM | [19] 15.5 µM | [7] 19.4 µM | [9] 19.4 µM | [10] 13.8 µM | [20] 12.6 µM | [11] 18.8 µM | [12] 14 µM | [13] 14.8 µM | [14] 13.2 µM | [15] 18.4 µM | [16] 16.8 µM | [17] 12.8 µM

COc1ccc(NC2=CC(=O)C(=O)c3ccccc32)nn1
inactive: [3] 1.73 µM | [6] 1.64 µM | [19] 3.56 µM | [7] 1.91 µM | [9] 1.54 µM | [10] 1.34 µM | [20] 2.73 µM | [11] 1.2 µM | [12] 2.5 µM | [13] 2.9 µM | [15] 1.69 µM | [16] 1.51 µM | [17] 3.1 µM
active: [1] 0.262 µM | [2] 0.197 µM | [4] 0.281 µM | [18] 0.492 µM | [14] 0.643 µM

CC1=C(C(=O)OC(C)C)C(c2ccccc2[N+](=O)[O-])C(C(=O)OC(CO[N+](=O)[O-])CO[N+](=O)[O-])=C(C)N1 (configuration not stated)
inactive: [1] 2.79 µM | [2] 3.48 µM | [3] 5.24 µM | [4] 3.74 µM | [5] 3.07 µM | [18] 2.42 µM | [6] 2.81 µM | [19] 6.27 µM | [7] 4.27 µM | [9] 3.1 µM | [10] 2.07 µM | [20] 2.14 µM | [11] 6.49 µM | [12] 3.56 µM | [13] 3.44 µM | [14] 2.7 µM | [15] 5.26 µM | [16] 2.51 µM | [17] 2.85 µM

COc1ccc(/C=C2\N=C(N3CCCCC3)NC2=O)cc1
inactive: [1] 59 µM | [2] > 100 µM | [3] > 100 µM | [4] > 100 µM | [5] > 100 µM | [18] 57.4 µM | [6] > 100 µM | [19] > 100 µM | [7] > 100 µM | [8] > 100 µM | [10] > 100 µM | [20] > 100 µM | [11] > 100 µM | [12] 48.3 µM | [13] > 100 µM | [15] > 100 µM | [16] > 100 µM | [17] > 100 µM

CC(=O)Nc1c(C)cc2c(nc3n2CCC3OC(C)=O)c1[N+](=O)[O-] (configuration not stated)
inactive: [1] > 100 µM | [2] > 100 µM | [3] > 100 µM | [4] > 100 µM | [18] > 100 µM | [6] > 100 µM | [7] > 100 µM | [8] > 100 µM | [9] > 100 µM | [10] > 100 µM | [20] > 100 µM | [11] > 100 µM | [12] > 100 µM | [13] > 100 µM | [14] > 100 µM | [15] > 100 µM | [16] > 100 µM | [17] > 100 µM

COc1ccc(C23OCC(Cc4cc(OC)c(OC)cc42)C3COC(C)=O)cc1OC (configuration not stated)
inactive: [2] > 100 µM | [3] > 100 µM | [4] > 100 µM | [5] > 100 µM | [18] > 100 µM | [6] > 100 µM | [19] > 100 µM | [7] 56.1 µM | [8] > 100 µM | [9] > 100 µM | [10] > 100 µM | [20] > 100 µM | [11] > 100 µM | [12] > 100 µM | [13] > 100 µM | [14] 20.7 µM | [16] > 100 µM | [17] > 100 µM

CCCCCCNC(=S)N/N=C(\C)c1ccccn1
active: [1] 0.904 µM | [3] < 0.01 µM | [4] 0.0337 µM | [5] 0.0445 µM | [18] 0.06 µM | [19] 0.55 µM | [7] < 0.0311 µM | [9] 0.347 µM | [10] 0.182 µM | [20] < 0.01 µM | [11] < 0.01 µM | [12] 0.124 µM | [14] 0.299 µM | [15] < 0.01 µM | [16] 0.604 µM | [17] 0.0176 µM
inactive: [2] 1.53 µM | [13] 3.4 µM

Clc1sc(Cl)c2c1[C@H](Cl)C[C@@H]2Cl
inactive: [1] 20.6 µM | [2] 18.2 µM | [3] 29.2 µM | [4] 15.1 µM | [5] 38.5 µM | [6] 32.7 µM | [19] 39.5 µM | [7] 24.4 µM | [8] 6.58 µM | [9] 49.2 µM | [10] 22.2 µM | [11] 24.2 µM | [12] 14.6 µM | [14] 32.4 µM | [15] 17.4 µM | [16] 17.8 µM | [17] 38.3 µM
active: [18] 1.07 µM

O=C1c2c(ccc3c2CCCC3)CC1Cc1ccc2c(c1)CCCC2 (configuration not stated)
inactive: [1] 39 µM | [2] 34 µM | [3] 30.8 µM | [4] 35.7 µM | [5] 87.7 µM | [6] 17.1 µM | [19] > 100 µM | [7] 39.5 µM | [8] 22 µM | [9] 38.5 µM | [10] 48 µM | [20] 45.5 µM | [11] > 100 µM | [12] > 100 µM | [13] > 100 µM | [14] 22.6 µM | [15] > 100 µM | [16] > 100 µM | [17] 45.5 µM

O=c1c2cc(I)ccc2nc(-c2cccs2)n1/N=C/c1ccccc1
inactive: [2] > 100 µM | [3] > 100 µM | [4] > 100 µM | [5] > 100 µM | [18] > 100 µM | [6] > 100 µM | [19] > 100 µM | [7] > 100 µM | [8] > 100 µM | [9] > 100 µM | [10] > 100 µM | [20] > 100 µM | [11] > 100 µM | [12] > 100 µM | [13] > 100 µM | [14] > 100 µM | [15] > 100 µM | [16] > 100 µM | [17] > 100 µM

O=C(O)c1ccc(C(c2c(O)oc3ccccc3c2=O)c2c(O)oc3ccccc3c2=O)cc1
inactive: [1] > 100 µM | [2] > 100 µM | [3] 40.9 µM | [4] 43.1 µM | [5] 43 µM | [6] > 100 µM | [7] 59.7 µM | [8] 2.82 µM | [9] > 100 µM | [10] > 100 µM | [20] > 100 µM | [11] > 100 µM | [12] 14.2 µM | [13] > 100 µM | [14] > 100 µM | [16] 4.97 µM
